The structures appear in SMILES notation. Where a name gives a salt, the structure may show the parent alone. Bounds are passed on as bounds.

For the assay, the target named is T1, human recombinant ENPP1 (Homo sapiens, UniProt P22413).
T1 construct: purchased R & D systems
T1 sequence (P22413 1-925): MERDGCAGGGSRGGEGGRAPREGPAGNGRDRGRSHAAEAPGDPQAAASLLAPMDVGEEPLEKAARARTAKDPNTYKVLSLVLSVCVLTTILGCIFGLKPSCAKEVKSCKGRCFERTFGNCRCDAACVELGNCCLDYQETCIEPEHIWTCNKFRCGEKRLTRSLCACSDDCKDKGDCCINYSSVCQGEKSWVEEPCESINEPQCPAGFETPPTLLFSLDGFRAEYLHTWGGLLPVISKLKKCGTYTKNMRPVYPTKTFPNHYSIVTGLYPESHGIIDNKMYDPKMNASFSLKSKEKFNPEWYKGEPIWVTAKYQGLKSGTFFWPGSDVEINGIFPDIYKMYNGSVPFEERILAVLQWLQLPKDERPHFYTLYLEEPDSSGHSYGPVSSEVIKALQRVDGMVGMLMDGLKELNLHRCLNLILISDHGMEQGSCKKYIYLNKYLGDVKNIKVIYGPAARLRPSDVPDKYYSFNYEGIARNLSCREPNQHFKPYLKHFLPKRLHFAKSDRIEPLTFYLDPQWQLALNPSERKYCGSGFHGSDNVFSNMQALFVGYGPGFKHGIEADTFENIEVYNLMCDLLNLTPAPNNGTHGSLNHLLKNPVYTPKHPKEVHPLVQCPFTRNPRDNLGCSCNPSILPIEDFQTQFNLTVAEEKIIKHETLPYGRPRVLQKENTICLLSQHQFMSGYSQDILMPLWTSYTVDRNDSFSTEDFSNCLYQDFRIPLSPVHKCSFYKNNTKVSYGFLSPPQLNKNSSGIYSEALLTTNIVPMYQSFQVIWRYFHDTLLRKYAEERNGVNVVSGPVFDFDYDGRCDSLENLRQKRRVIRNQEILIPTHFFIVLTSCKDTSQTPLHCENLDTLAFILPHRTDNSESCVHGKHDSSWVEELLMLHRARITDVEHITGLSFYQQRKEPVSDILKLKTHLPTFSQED
Nature of the assay: ENPP1 enzyme assay with cGAMP substrate (AMP-Glo luminescence). The assay is classed as biochemical. As to conditions: human recombinant ENPP1 3 ng/reaction, cGAMP 5 μM, 37° C. 90 minutes, read-out: Enzymatic activity (ENPP1 IC50). The essentials:
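Human ENPP1 hydrolysis of 5 μM cGAMP was run for 90 min at 37° C in 50 mM Tris pH 8.5, 250 mM NaCl, 0.5 mM CaCl2, 1 μM ZnCl2, 5% glycerol, 1% DMSO. AMP product was quantified by AMP-Glo luminescence; IC50 came from 3-parameter fits of % residual activity, averaged over at least two runs.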
Take `COc1cc2c(-c3ccc(CNS(N)(=O)=O)cc3F)n[nH]c(=O)c2cc1OC` [Compound No. 112, N-(4-(6,7-dimethoxy-4-oxo-3,4-dihydrophthalazin-1-yl)-3-fluorobenzyl)sulfamide hydrochloride]: the IC50 (in general, the concentration needed to halve the response being measured) fell in the range of 1 to 10 µM.

In the case of `NS(=O)(=O)Nc1ccc(-c2nn(Cc3ccccc3)c(=O)c3ccccc23)cc1` [Compound No. 93, N-(4-(3-benzyl-4-oxo-3,4-dihydrophthalazin-1-yl)phenyl)sulfamide], the half-inhibitory concentration (IC50) is above 10 µM.

In the case of `COc1cc2c(N3CCC(CNS(=O)(=O)NC(=O)OC(C)(C)C)CC3)n[nH]c(=O)c2cc1OC` [Compound No. 137, tert-butyl N-((1-(6,7-dimethoxy-4-oxo-3,4-dihydrophthalazin-1-yl)piperidin-4-yl)methyl)sulfamoyl carbamate], the IC50 was above 10 µM.

`O=c1[nH]nc(-c2ccc3c(c2)CCNC3)c2ccccc12` [Compound No. 55, 4-(1,2,3,4-tetrahydroisoquinolin-6-yl)phthalazin-1(2H)-one hydrochloride]: the IC50 was below 1 µM.

In the case of `COc1ccc2c(-c3ccc(CN)cc3)n[nH]c(=O)c2c1` [Compound No. 47, 4-(4-(aminomethyl)-phenyl)-7-methoxyphthalazin-1(2H)-one hydrochloride], the half-inhibitory concentration (IC50) is below 1 µM.

As to `COc1cc2c(Cc3ccc(Br)cc3)n[nH]c(=O)c2cc1OC` [Example 194, 4-(4-bromobenzyl)-6,7-dimethoxyphthalazin-1(2H)-one], the IC50 is above 10 µM.

Turning to `CC(C)(C)OC(=O)NS(=O)(=O)NCc1ccc(-c2nn(-c3ccccc3)c(=O)c3ccccc23)cc1` [Compound No. 69, tert-butyl (N-(4-(4-oxo-3-phenyl-3,4-dihydrophthalazin-1-yl)benzyl)sulfamoyl)carbamate], the IC50 was above 10 µM.

With `NS(=O)(=O)N1CCc2cc(-c3n[nH]c(=O)c4ccccc34)ccc2C1` [Compound No. 128, 6-(4-oxo-3,4-dihydrophthalazin-1-yl-3,4-dihydroisoquinoline-2(1H)-sulfonamide hydrochloride], the half-maximal inhibitory concentration (IC50) was in the range of 1 to 10 µM.

Regarding `Nc1cccc(-c2n[nH]c(=O)c3ccccc23)c1` [Compound No. 30, 4-(3-aminophenyl)phthalazin-1(2H)-one hydrochloride], the IC50 is above 10 µM.

With `CCn1nc(-c2ccc(CNS(N)(=O)=O)cc2)c2ccccc2c1=O` [Compound No. 98, N-(4-(3-ethyl-4-oxo-3,4-dihydrophthalazin-1-yl)benzyl)sulfamide hydrochloride], the IC50 was 1 to 10 µM.

For `COc1cc2c(Cc3ccc(N(C)C(=O)OC(C)(C)C)cc3)n[nH]c(=O)c2cc1OC` [Example 152, tert-butyl (4-((6,7-dimethoxy-4-oxo-3,4-dihydrophthalazin-1-yl)methyl)phenyl) (methyl) carbamate], the half-maximal inhibitory concentration (IC50) is above 10 µM.

In the case of `COc1cc2c(Cc3cccc(N)c3)n[nH]c(=O)c2cc1OC` [Example 156, 4-(3-aminobenzyl)-6,7-dimethoxyphthalazin-1(2H)-one hydrochloride], the IC50 is above 10 µM.

Consider `CN(C(=O)OC(C)(C)C)c1ccc(Cc2n[nH]c(=O)c3ccccc23)cc1` [Compound No. 151, tert-butyl (4-((4-oxo-3,4-dihydrophthalazin-1-yl)methyl)phenyl) (methyl)carbamate], for which the IC50 was above 10 µM.

Turning to `Cn1nc(-c2cccc(CNS(N)(=O)=O)c2)c2ccccc2c1=O` [Compound No. 94, N-(3-(3-methyl-4-oxo-3,4-dihydrophthalazin-1-yl)benzyl)sulfamide trifluoroacetic acid], the IC50 is below 1 µM.

Consider `NS(=O)(=O)NCc1cccc(-c2n[nH]c(=O)c3ccccc23)c1` [Compound No. 95, N-(3-(3-oxo-3,4-dihydrophthalazin-1-yl)benzyl)sulfamide hydrochloride], for which the IC50 is below 1 µM.

As to `NS(=O)(=O)Nc1ccc(-c2n[nH]c(=O)c3ccccc23)cc1` [Compound No. 91, N-(4-(4-oxo-3,4-dihydrophthalazin-1-yl)phenyl)sulfamide], the IC50 is 1 to 10 µM.

With `Cn1nc(Cc2ccc(N)cc2)c2ccccc2c1=O` [Example 159, 4-(4-aminobenzyl)-2-methylphthalazin-1(2H)-one hydrochloride], the IC50 is above 10 µM.

Turning to `CC(C)n1nc(-c2ccc(CNS(N)(=O)=O)cc2)c2ccccc2c1=O` [Compound No. 99, N-(4-(3-isopropyl-4-oxo-3,4-dihydrophthalazin-1-yl)benzyl)sulfamide trifluoroacetic acid], the IC50 is above 10 µM.

On to `COc1cc2c(-c3ccc(CNS(=O)(=O)NC(=O)OC(C)(C)C)cc3)nn(C)c(=O)c2cc1OC` [Compound No. 77, tert-butyl (N-(4-(6,7-dimethoxy-3-methyl-4-oxo-3,4-dihydrophthalazin-1-yl)benzyl)sulfamoyl)carbamate], for which the IC50 was in the range of 1 to 10 µM.

`COc1cc2c(-c3ccc4c(c3)CCN(C(=O)OC(C)(C)C)C4)nn(C)c(=O)c2cc1OC` [Compound No. 29, tert-butyl-6-(6,7-dimethoxy-3-methyl-4-oxo-3,4-dihydrophthalazin-1-yl)-3,4-dihydroisoquinoline-2(1H)-carboxylate]: the IC50 is above 10 µM.

In the case of `COc1cc2c(-c3ccc4c(c3)CCN(S(N)(=O)=O)C4)n[nH]c(=O)c2cc1OC` [Compound No. 130, 6-(6,7-dimethoxy-4-oxo-3,4-dihydrophthalazin-1-yl)-3,4-dihydroisoquinoline-2(1H)-sulfonamide hydrochloride], the IC50 was in the range of 1 to 10 µM.
